± gives the uncertainty stated by the source.
Experiment: xn = mol fraction of the nth substance listed

CC[n+]1ccn(C)c1.[Cl-] + CC#N
viscosity (373 K, 100 kPa, x2 = 0.284): 12 ± 5 mPa·s

CC[n+]1ccn(C)c1C.F[B-](F)(F)F + CC#N
viscosity (293.15 K, 101.3 kPa, x1 = 0.02106): 0.518 ± 0.044 mPa·s
viscosity (293.15 K, 101.3 kPa, x1 = 0.04617): 0.648 ± 0.055 mPa·s
viscosity (293.15 K, 101.3 kPa, x1 = 0.07663): 0.846 ± 0.072 mPa·s
viscosity (293.15 K, 101.3 kPa, x1 = 0.1143): 1.116 ± 0.095 mPa·s
viscosity (293.15 K, 101.3 kPa, x1 = 0.1622): 1.68 ± 0.14 mPa·s
viscosity (293.15 K, 101.3 kPa, x1 = 0.2251): 2.63 ± 0.22 mPa·s
viscosity (293.15 K, 101.3 kPa, x1 = 0.3112): 4.25 ± 0.36 mPa·s
viscosity (293.15 K, 101.3 kPa, x1 = 0.4365): 8.05 ± 0.68 mPa·s
viscosity (298.15 K, 101.3 kPa, x1 = 0.02106): 0.505 ± 0.043 mPa·s
viscosity (298.15 K, 101.3 kPa, x1 = 0.04617): 0.618 ± 0.052 mPa·s
viscosity (298.15 K, 101.3 kPa, x1 = 0.07663): 0.808 ± 0.068 mPa·s
viscosity (298.15 K, 101.3 kPa, x1 = 0.1143): 1.051 ± 0.089 mPa·s
viscosity (298.15 K, 101.3 kPa, x1 = 0.1622): 1.58 ± 0.13 mPa·s
viscosity (298.15 K, 101.3 kPa, x1 = 0.2251): 2.44 ± 0.21 mPa·s
viscosity (298.15 K, 101.3 kPa, x1 = 0.3112): 3.81 ± 0.33 mPa·s
viscosity (298.15 K, 101.3 kPa, x1 = 0.4365): 7.11 ± 0.6 mPa·s
viscosity (303.15 K, 101.3 kPa, x1 = 0.02106): 0.476 ± 0.04 mPa·s
viscosity (303.15 K, 101.3 kPa, x1 = 0.04617): 0.59 ± 0.05 mPa·s
viscosity (303.15 K, 101.3 kPa, x1 = 0.07663): 0.768 ± 0.065 mPa·s
viscosity (303.15 K, 101.3 kPa, x1 = 0.1143): 0.995 ± 0.084 mPa·s
viscosity (303.15 K, 101.3 kPa, x1 = 0.1622): 1.48 ± 0.13 mPa·s
viscosity (303.15 K, 101.3 kPa, x1 = 0.2251): 2.26 ± 0.19 mPa·s
viscosity (303.15 K, 101.3 kPa, x1 = 0.3112): 3.48 ± 0.3 mPa·s
viscosity (303.15 K, 101.3 kPa, x1 = 0.4365): 6.37 ± 0.54 mPa·s
viscosity (308.15 K, 101.3 kPa, x1 = 0.02106): 0.456 ± 0.039 mPa·s
viscosity (308.15 K, 101.3 kPa, x1 = 0.04617): 0.566 ± 0.048 mPa·s
viscosity (308.15 K, 101.3 kPa, x1 = 0.07663): 0.732 ± 0.062 mPa·s
viscosity (308.15 K, 101.3 kPa, x1 = 0.1143): 0.943 ± 0.08 mPa·s
viscosity (308.15 K, 101.3 kPa, x1 = 0.1622): 1.39 ± 0.12 mPa·s
viscosity (308.15 K, 101.3 kPa, x1 = 0.2251): 2.11 ± 0.18 mPa·s
viscosity (308.15 K, 101.3 kPa, x1 = 0.3112): 3.2 ± 0.27 mPa·s
viscosity (308.15 K, 101.3 kPa, x1 = 0.4365): 5.75 ± 0.49 mPa·s
viscosity (313.15 K, 101.3 kPa, x1 = 0.02106): 0.442 ± 0.037 mPa·s
viscosity (313.15 K, 101.3 kPa, x1 = 0.04617): 0.543 ± 0.046 mPa·s
viscosity (313.15 K, 101.3 kPa, x1 = 0.07663): 0.698 ± 0.059 mPa·s
viscosity (313.15 K, 101.3 kPa, x1 = 0.1143): 0.893 ± 0.076 mPa·s
viscosity (313.15 K, 101.3 kPa, x1 = 0.1622): 1.31 ± 0.11 mPa·s
viscosity (313.15 K, 101.3 kPa, x1 = 0.2251): 1.97 ± 0.17 mPa·s
viscosity (313.15 K, 101.3 kPa, x1 = 0.3112): 2.94 ± 0.25 mPa·s
viscosity (313.15 K, 101.3 kPa, x1 = 0.4365): 5.18 ± 0.44 mPa·s
viscosity (318.15 K, 101.3 kPa, x1 = 0.02106): 0.428 ± 0.036 mPa·s
viscosity (318.15 K, 101.3 kPa, x1 = 0.04617): 0.52 ± 0.044 mPa·s
viscosity (318.15 K, 101.3 kPa, x1 = 0.07663): 0.667 ± 0.056 mPa·s
viscosity (318.15 K, 101.3 kPa, x1 = 0.1143): 0.85 ± 0.072 mPa·s
viscosity (318.15 K, 101.3 kPa, x1 = 0.1622): 1.24 ± 0.11 mPa·s
viscosity (318.15 K, 101.3 kPa, x1 = 0.2251): 1.84 ± 0.16 mPa·s
viscosity (318.15 K, 101.3 kPa, x1 = 0.3112): 2.71 ± 0.23 mPa·s
viscosity (318.15 K, 101.3 kPa, x1 = 0.4365): 4.7 ± 0.4 mPa·s
viscosity (323.15 K, 101.3 kPa, x1 = 0.02106): 0.414 ± 0.035 mPa·s
viscosity (323.15 K, 101.3 kPa, x1 = 0.04617): 0.501 ± 0.042 mPa·s
viscosity (323.15 K, 101.3 kPa, x1 = 0.07663): 0.636 ± 0.054 mPa·s
viscosity (323.15 K, 101.3 kPa, x1 = 0.1143): 0.809 ± 0.069 mPa·s
viscosity (323.15 K, 101.3 kPa, x1 = 0.1622): 1.17 ± 0.099 mPa·s
viscosity (323.15 K, 101.3 kPa, x1 = 0.2251): 1.73 ± 0.15 mPa·s
viscosity (323.15 K, 101.3 kPa, x1 = 0.3112): 2.51 ± 0.21 mPa·s
viscosity (323.15 K, 101.3 kPa, x1 = 0.4365): 4.27 ± 0.36 mPa·s
viscosity (328.15 K, 101.3 kPa, x1 = 0.02106): 0.401 ± 0.034 mPa·s
viscosity (328.15 K, 101.3 kPa, x1 = 0.04617): 0.483 ± 0.041 mPa·s
viscosity (328.15 K, 101.3 kPa, x1 = 0.07663): 0.608 ± 0.051 mPa·s
viscosity (328.15 K, 101.3 kPa, x1 = 0.1143): 0.769 ± 0.065 mPa·s
viscosity (328.15 K, 101.3 kPa, x1 = 0.1622): 1.105 ± 0.094 mPa·s
viscosity (328.15 K, 101.3 kPa, x1 = 0.2251): 1.62 ± 0.14 mPa·s
viscosity (328.15 K, 101.3 kPa, x1 = 0.3112): 2.33 ± 0.2 mPa·s
viscosity (328.15 K, 101.3 kPa, x1 = 0.4365): 3.91 ± 0.33 mPa·s
viscosity (333.15 K, 101.3 kPa, x1 = 0.02106): 0.389 ± 0.033 mPa·s
viscosity (333.15 K, 101.3 kPa, x1 = 0.04617): 0.465 ± 0.039 mPa·s
viscosity (333.15 K, 101.3 kPa, x1 = 0.07663): 0.583 ± 0.049 mPa·s
viscosity (333.15 K, 101.3 kPa, x1 = 0.1143): 0.733 ± 0.062 mPa·s
viscosity (333.15 K, 101.3 kPa, x1 = 0.1622): 1.049 ± 0.089 mPa·s
viscosity (333.15 K, 101.3 kPa, x1 = 0.2251): 1.53 ± 0.13 mPa·s
viscosity (333.15 K, 101.3 kPa, x1 = 0.3112): 2.16 ± 0.18 mPa·s
viscosity (333.15 K, 101.3 kPa, x1 = 0.4365): 3.57 ± 0.3 mPa·s

CS(C)=O + CC(=O)[O-].CC[NH2+]CC
viscosity (298.15 K, 101 kPa, x2 = 0): 2.01 ± 0.12 mPa·s

CS(C)=O + CC(=O)[O-].CC[NH+](CC)CC
viscosity (298.15 K, 101 kPa, x1 = 1): 1.99 ± 0.06 mPa·s
viscosity (303.15 K, 101 kPa, x1 = 1): 1.79 ± 0.05 mPa·s
viscosity (308.15 K, 101 kPa, x1 = 1): 1.65 ± 0.05 mPa·s

— the CheMixHub ionic liquid set
